Assays:
SNAP protein tags = target: T1, SNAP protein tags (Homo sapiens, UniProt P16455, A127T/A154D/C150Q/C62A/E30R/G131K/G132T/G153L/K125A/K32I/L33F/M134L/N157G/Q115S/Q116H/R128A/R135S/S151G/S152D/S159E); test: Fluorescence activation of probe after incubation with corresponding protein tag (SNAP); format: biochemical; conditions: probe 5 μM, protein tag 10 μM, 37° C., 1 hr
T1 sequence (P16455 1-182 E30R/K32I/L33F/C62A/Q115S/Q116H/K125A/A127T/R128A/G131K/G132T/M134L/R135S/C150Q/S151G/S152D/G153L/A154D/N157G/S159E): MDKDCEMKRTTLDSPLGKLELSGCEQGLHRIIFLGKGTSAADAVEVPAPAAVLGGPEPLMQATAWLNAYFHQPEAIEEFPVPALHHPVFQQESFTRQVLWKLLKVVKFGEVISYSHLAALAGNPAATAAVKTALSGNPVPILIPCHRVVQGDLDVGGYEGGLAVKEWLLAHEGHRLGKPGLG
Experimental: (§1) Probes were mixed with corresponding protein tags to obtain mixed samples, in which the final probe concentration was 5 μM, and the final protein tag concentration was 10 μM. The mixed samples were incubated 37° C. for 1 hr, fluorescence spectrophotometer was used to detect the change in fluorescence intensity, and the results are shown in Table 1.
(§2) From the quantum yield of probe bound to protein tag, after reacting with the protein tags, the probes of the Examples could be detected to have significant signal enhancement in corresponding excitation transmission channels, the fluorescence activation multiple reached several hundreds to a thousand or more, and the brightness was high, which illustrates that after the probes of the Examples are bound to the protein tags, fluorescence of the probes can be activated, and the probes have good fluorescent molecular switching properties. In contrast, though the fluorescence of the reference probes could also be activated, the quantum yield of activated fluorescence was very low, and the brightness was very poor. In particular, in view of comparison results between probe 98 and reference probe 99, probe 101 and reference probe 102, probe 103 and reference probe 104, probe 105 and reference probe 106, probe 107 and reference probe 108, probe 109 and reference probe 110, probe 111 and reference probe 112, probe 114 and reference probe 115, probe 117 and reference probe 118, probe 120 and reference probe 121 in Table 1, for the same fluorescent dye, when the ligand is connected to the electron donor part of the fluorescent dye, the fluorescence activation brightness of the probe is much higher than the reference probe in which ligand is connected to the electron acceptor part of the fluorescent dye.

[1] = Viscosity responsiveness: fluorescence emission spectra of probes in glycerol and methanol; format: physicochemical; conditions: for Emission wavelength: excited at maximum excitation wavelength of each probe; for Fluorescence ratio in glycerol to methanol: probe 1×10^−5 M
Experimental: Probes 1 to 98, 101, 103, 105, 107, 109, 111, 114, 117, and 120, and the reference probes 99, 100, 102, 104, 106, 108, 110, 112, 113, 115, 116, 118, 119, 121, BG-CCVJ and BG-Gly-CCVJ were dissolved in dimethyl sulfoxide, respectively, to prepare mother liquors having a concentration of 1×10^−2 M, to each of which glycerol and methanol were added and uniformly mixed, to prepare solutions finally having a concentration of 1×10^−5 M. Depending on the probes, fluorescence emission spectra of the probes were detected successively with the maximum excitation wavelength of each probe under the same conditions, and the results were shown in Table 1.
That is, these probes are sensitive to viscosity changes and have viscosity responsiveness.

[2] = Fluorescence of free probe prior to binding to a protein tag; format: physicochemical
Experimental: as §1, §2

Compound	Fluorescence activation multiple (SNAP protein tags)	Quantum yield of probe bound to protein tag (SNAP protein tags)	Emission wavelength [1] [nm]	Fluorescence ratio in glycerol to methanol [1]	Quantum yield of free probe [2]
CC1=N/C(=C/c2cc3ccc(N(C)CCOC(=O)NCc4ccc(COc5nc(N)nc6[nH]cnc56)cc4)cc3s2)C(=O)N1C [probe 41]	212	0.31	575	101	0.0015
CN1C(=O)/C(=C\c2cc3ccc(N(C)CCOC(=O)NCc4ccc(COc5nc(N)nc6[nH]cnc56)cc4)cc3s2)N=C1c1ccccc1 [probe 42]	298	0.38	600	178	0.0013
CN(CCOC(=O)NCc1ccc(COc2nc(N)nc3[nH]cnc23)cc1)c1ccc2nc(/C=C(\C#N)C(=O)OC(C)(C)C)oc2c1 [probe 43]	982	0.37	602	1028	<0.001
CN(CCOC(=O)NCc1ccc(COc2cc(Cl)nc(N)n2)cc1)c1ccc2nc(/C=C(\C#N)C(=O)OC(C)(C)C)oc2c1 [probe 44]	1586	0.37	603	1459	<0.001
CN(CCOC(=O)NCc1ccc(COc2nc(N)nc3[nH]cnc23)cc1)c1ccc2nc(/C=C(\C#N)c3nc4ccccc4o3)oc2c1 [probe 46]	563	0.21	620	682	<0.001
CN(CCOC(=O)NCc1ccc(COc2nc(N)nc3[nH]cnc23)cc1)c1ccc2nc(/C=C(\C#N)c3nc4ccccc4s3)oc2c1 [probe 47]	358	0.26	627	235	<0.001
CN(CCOC(=O)NCc1ccc(COc2nc(N)nc3[nH]cnc23)cc1)c1ccc2nc(/C=C(\C#N)C(=O)O)oc2c1 [probe 49]	541	0.11	601	210	<0.001
CN1C(=O)/C(=C\c2nc3ccc(N(C)CCOC(=O)NCc4ccc(COc5nc(N)nc6[nH]cnc56)cc4)cc3o2)N=C1c1ccccc1 [probe 50]	416	0.29	612	358	<0.001
CN(CCOC(=O)NCc1ccc(COc2nc(N)nc3[nH]cnc23)cc1)c1ccc2nc(/C=C(\C#N)C(=O)OC(C)(C)C)sc2c1 [probe 51]	392	0.25	625	359	<0.001
CN(CCOC(=O)NCc1ccc(COc2cc(Cl)nc(N)n2)cc1)c1ccc2nc(/C=C(\C#N)C(=O)OC(C)(C)C)sc2c1 [probe 52]	435	0.25	625	270	<0.001
CN(CCOC(=O)NCc1ccc(COc2nc(N)nc3[nH]cnc23)cc1)c1ccc2nc(/C=C(\C#N)c3nc4ccccc4o3)sc2c1 [probe 54]	498	0.17	650	391	<0.001
CN(CCOC(=O)NCc1ccc(COc2nc(N)nc3[nH]cnc23)cc1)c1ccc2nc(/C=C(\C#N)c3nc4ccccc4s3)sc2c1 [probe 55]	382	0.25	651	211	<0.001
CN(CCOC(=O)NCc1ccc(COc2nc(N)nc3[nH]cnc23)cc1)c1ccc(C#C/C=C(\C#N)c2nc3ccccc3o2)cc1 [probe 58]	519	0.27	590	419	<0.001
CN(CCOC(=O)NCc1ccc(COc2nc(N)nc3[nH]cnc23)cc1)c1ccc(C#C/C=C(\C#N)c2nc3ccccc3s2)cc1 [probe 59]	498	0.39	600	370	<0.001
CN(CCOC(=O)NCc1ccc(COc2nc(N)nc3[nH]cnc23)cc1)c1cc2sc3cc(/C=C(\C#N)c4nc5ccccc5o4)sc3c2s1 [probe 61]	668	0.77	620	817	0.0012
CN(CCOC(=O)NCc1ccc(COc2nc(N)nc3[nH]cnc23)cc1)c1cc2sc3cc(/C=C(\C#N)c4nc5ccccc5s4)sc3c2s1 [probe 62]	592	0.32	640	711	<0.001
CN(CCOC(=O)NCc1ccc(COc2nc(N)nc3[nH]cnc23)cc1)c1ccc2c(c1)sc1cc(C=C(C#N)C#N)sc12 [probe 64]	519	0.48	620	632	<0.001
CN(CCOC(=O)NCc1ccc(COc2nccc(N)n2)cc1)c1ccc2c(c1)sc1cc(/C=C(/C#N)c3nc4ccccc4o3)sc12 [probe 65]	798	0.66	650	391	<0.001
COCCNC(=O)/C(C#N)=C/c1ccc(-c2ccc(N(C)CCOC(=O)NCc3ccc(COc4nc(N)nc5[nH]cnc45)cc3)cc2)s1 [probe 67]	576	0.36	620	276	<0.001
COCCNC(=O)/C(C#N)=C/c1ccc(-c2ccc(N(C)CCOC(=O)NCc3ccc(COc4cc(Cl)nc(N)n4)cc3)cc2)s1 [probe 68]	681	0.36	620	381	<0.001
CN(CCOC(=O)NCc1ccc(COc2nc(N)nc3[nH]cnc23)cc1)c1cc2cc3sc(/C=C(\C#N)C(=O)OC(C)(C)C)cc3cc2s1 [probe 70]	258	0.68	640	131	0.0026
COCCNC(=O)/C(C#N)=C/c1cc2cc3sc(N(C)CCOC(=O)NCc4ccc(COc5nc(N)nc6[nH]cnc56)cc4)cc3cc2s1 [probe 71]	239	0.67	640	121	0.0028
CN(CCOC(=O)NCc1ccc(COc2nc(N)nc3[nH]cnc23)cc1)c1cc2c(s1)-c1sc(C=C(C#N)C#N)cc1[Si]2(C)C [probe 73]	248	0.76	680	325	0.0031
